Measured values published in patent US5932707A, “Thioether-containing metal chelating compounds” (Nycomed Amersham plc, priority 1993, dated 1999).

Key:
[1] = Human plasma protein binding of technetium complexes (ultrafiltration); assay type: in vitro ADME; settings: technetium complex, read-out: PPB % bound (converted)
Description: Human plasma protein binding was determined by ultrafiltration^(9), such that the percentage of complex bound is an indicator of the affinity of binding.
The plasma protein binding figure obtained for a given compound is highly dependent on the method of determination used^(10). Thus equilibrium dialysis measurement may lead to higher PPB figures than those obtained via ultrafiltration due to longer incubation times. Use of serum rather than plasma may also underestimate the true extent of binding. There are also significant interspecies differences.

[2] = neutral lipophilic technetium complex; cited from earlier work
[3] = test system: V79-379A Chinese hamster cells; assay: Hypoxic and oxic binding of 99mTc labelled compounds to cells in vitro; assay type: cell-based; settings: 99mTc complex; for Oxic SN (supernatant): air +5% CO2; for Oxic pellet: air +5% CO2, 37° C.; for Oxic pellet / Hypoxic pellet: 10^6 cells per pellet; for Hypoxic SN (supernatant): nitrogen +5% CO2; for Hypoxic pellet: nitrogen +5% CO2, 37° C.
Description: V79-379A Chinese hamster cells were harvested from exponential suspension culture and resuspended at 1.1×10^6 cells cm^-3 in Bagle's MEM. 20 cm^3 of cells were transferred to small spinner vessels and gassed with either air +5% CO2 (oxic) or nitrogen +5% CO2 (Hypoxic) at 37° C. After 30 minutes, between 0.5 cm^3 and 1 cm^3 of ^99m Tc labelled compound was added. At timed intervals 1 cm^3 of cell suspension was withdrawn from each flask and chilled on ice in small polystyrene centrifuge tubes. The cells were centrifuged and washed three times in ice-cold medium (Eagle's MEM) to give constant counts in the cell pellet. The pellets were counted in LKB 1282 Compugamma counter. The initial supernatant was diluted 1 in 100 with saline and 1 cm^3 was counted. All samples were counted at the end of the incubation period and counts have been corrected for decay during counting but not for decay during incubation.
Attempts were made to decrease the amount of non-specific binding by incubating the cell samples in a large volume of medium for one hour at 37° C. under oxic conditions.

human erythrocyte ghosts = assay: Red cell ghost (RCG) uptake; assay type: in vitro ADME; settings: for RCG uptake: technetium complex, human erythrocyte ghosts
Description: RCG uptake is determined by incubation of a fixed amount of labelled complex with a range of ghost concentrations. The percentage of labelled complex […] is calculated for each ghost concentration to yield a single uptake figure expressed as %/mg protein.

[4] = Stability when handled in air; assay type: physicochemical

## CC(C)(S)CNCCNCC(C)(C)S [BAT, reference compound]
[1]
  fraction unbound: 0.38
[2]
  blood-brain barrier passage: can cross the blood-brain barrier

## CC(=O)NCSCC(NCC(O)Cn1ccnc1[N+](=O)[O-])C(=O)NCC(=O)NCCN(C)C (stereo not drawn) [HL11P]
[3]; 0.5 hrs
  Hypoxic:oxic ratio: 5.79
  Oxic SN (supernatant): 25.1 cpm/ml (10^-7)
  Oxic pellet: 0.42 cpm (×10^-5)
  Hypoxic SN (supernatant): 22.2 cpm/ml (10^-7)
  Hypoxic pellet: 2.15 cpm (×10^-5)
[3]; 1.0 hrs
  Hypoxic:oxic ratio: 2.91
  Oxic SN (supernatant): 24.9 cpm/ml (10^-7)
  Oxic pellet: 0.71 cpm (×10^-5)
  Hypoxic SN (supernatant): 22.3 cpm/ml (10^-7)
  Hypoxic pellet: 1.85 cpm (×10^-5)
[3]; 2.0 hrs
  Hypoxic:oxic ratio: 3.86
  Oxic SN (supernatant): 25.5 cpm/ml (10^-7)
  Oxic pellet: 0.99 cpm (×10^-5)
  Hypoxic SN (supernatant): 22.2 cpm/ml (10^-7)
  Hypoxic pellet: 3.33 cpm (×10^-5)
[3]; 3.0 hrs
  Hypoxic:oxic ratio: 3.60
  Oxic SN (supernatant): 25.6 cpm/ml (10^-7)
  Oxic pellet: 1.18 cpm (×10^-5)
  Hypoxic SN (supernatant): 22.4 cpm/ml (10^-7)
  Hypoxic pellet: 3.72 cpm (×10^-5)
[3]; 4.0 hrs
  Hypoxic:oxic ratio: 5.07
  Oxic SN (supernatant): 26.0 cpm/ml (10^-7)
  Oxic pellet: 1.40 cpm (×10^-5)
  Hypoxic SN (supernatant): 22.8 cpm/ml (10^-7)
  Hypoxic pellet: 6.22 cpm (×10^-5)
[3]; 5.0 hrs
  Hypoxic:oxic ratio: 3.26
  Oxic SN (supernatant): 25.7 cpm/ml (10^-7)
  Oxic pellet: 1.63 cpm (×10^-5)
  Hypoxic SN (supernatant): 22.7 cpm/ml (10^-7)
  Hypoxic pellet: 4.70 cpm (×10^-5)

## CC(=O)NCCNC(=O)CSCCSC1CCCCO1 (stereo not drawn) [HL15P, N-(2-Acetylaminoethyl)-2-(tetrahydropyran-2-ylthio)ethylthioacetamide]
[1]
  fraction unbound: 1
Human erythrocyte ghosts
  RCG uptake: 1.6 %/mg protein

## CC(=O)NCCNC(=O)CCSCCSC1CCCCO1 (stereo not drawn) [HL49, N-(2-acetylaminoethyl)-3-[2-(tetrahydropyran-2-ylthio)ethylthio]propionamide]
[1]
  fraction unbound: 0.82
Human erythrocyte ghosts
  RCG uptake: 3.6 %/mg protein

## CC(=O)NCCCNC(=O)CSCCSC1CCCCO1 (stereo not drawn) [HL60P, N-(3-acetylamino)propyl-2-(tetrahydropyran-2-ylthio)ethylthioacetamide]
[1]
  fraction unbound: 1
Human erythrocyte ghosts
  RCG uptake: 1.1 %/mg protein

## CC(=O)NCCNC(=O)CSCCS [HL 15D, N-(2-Acetylaminoethyl)-2-mercaptoethylthioacetamide]
[4]
  tendency to oxidise to the corresponding disulphide: tended to oxidise to the corresponding disulphide if handled in air

## CC(=NO)C(C)(C)NCCCNC(C)(C)C(C)=NO [PnAO, reference compound]
[1]
  fraction unbound: 0.25
Human erythrocyte ghosts
  RCG uptake: 6.7 %/mg protein

## O=C([O-])CN(CCN(CC(=O)[O-])CC(=O)[O-])CCN(CC(=O)[O-])CC(=O)[O-].[99Tc+4] [^99m Tc-DTPA, reference compound]
Human erythrocyte ghosts; 99mTc complex
  RCG uptake (in words): excluded from the ghosts
